Laboratory results reported in PMC8426238, “Synthesis and preclinical evaluation of [^11C]MTP38 as a novel PET ligand for phosphodiesterase 7 in the brain” (European Journal of Nuclear Medicine and Molecular Imaging, 2021).

What was measured:
GABAB1A = biological target: T1, GABAB1A (Homo sapiens, UniProt Q9UBS5); assay: off-target screen panel; assay type: binding; conditions: Human recombinant, [^3H]CGP-54626
T1 construct: purchased Eurofins Panlabs Discovery Services (Taiwan)

Dopamine D1 = biological target: T2, Dopamine D1 (Homo sapiens, UniProt P21728); assay: off-target screen panel; assay type: binding; conditions: Human recombinant, [^3H]SCH-23390
T2 construct: purchased Eurofins Panlabs Discovery Services (Taiwan)

Glucocorticoid = biological target: T3, Glucocorticoid (Homo sapiens, UniProt P04150); assay: off-target screen panel; assay type: binding; conditions: Human recombinant, [^3H]Dexamethasone
T3 construct: purchased Eurofins Panlabs Discovery Services (Taiwan)

Tachykinin NK1 = biological target: T4, Tachykinin NK1 (Homo sapiens, UniProt P25103); assay: off-target screen panel; assay type: binding; conditions: Human recombinant, [^3H]Substance P
T4 construct: purchased Eurofins Panlabs Discovery Services (Taiwan)

Transporter, GABA = assay: off-target screen panel; assay type: binding; conditions: Rat cerebral cortex, [^3H]GABA
Adenosine A1 = biological target: T5, Adenosine A1 (Homo sapiens, UniProt P30542); assay: off-target screen panel; assay type: binding; conditions: Human recombinant, [^3H]DPCPX
T5 construct: purchased Eurofins Panlabs Discovery Services (Taiwan)

[1] = biological target: T6, Nicotinic Acetylcholine α1, Bungarotoxin (Homo sapiens, UniProt P02708+P07510+Q07001); assay: off-target screen panel; assay type: binding; conditions: read-out: Inhibition (%) at 1 μM
T6 construct: purchased Eurofins Panlabs Discovery Services (Taiwan)

[2] = test system: GABAA, Flunitrazepam, Central; assay: off-target screen panel; assay type: binding; conditions: Rat brain (minus cerebellum), [^3H]Flunitrazepam
Neuropeptide Y Y1 = biological target: T7, Neuropeptide Y Y1 (Homo sapiens, UniProt P25929); assay: off-target screen panel; assay type: binding; conditions: Human SK-N-MC cells, [^125I]Peptide YY
T7 construct: purchased Eurofins Panlabs Discovery Services (Taiwan)

[3] = test system: Calcium Channel L-Type, Benzothiazepine; assay: off-target screen panel; assay type: binding; conditions: Rat brain, [^3H]Diltiazem
Endothelin ETA = biological target: T8, Endothelin ETA (Homo sapiens, UniProt P25101); assay: off-target screen panel; assay type: binding; conditions: Human recombinant, [^125I]Endothelin-1
T8 construct: purchased Eurofins Panlabs Discovery Services (Taiwan)

Interleukin IL-1 R1 = biological target: T9, Interleukin IL-1 R1 (Homo sapiens, UniProt P14778); assay: off-target screen panel; assay type: binding; conditions: Human recombinant, [^125I]Interleukin-1β
T9 construct: purchased Eurofins Panlabs Discovery Services (Taiwan)

Muscarinic M1 = biological target: T10, Muscarinic M1 (Homo sapiens, UniProt P11229); assay: off-target screen panel; assay type: binding; conditions: Human recombinant, [^3H]N-Methylscopolamine
T10 construct: purchased Eurofins Panlabs Discovery Services (Taiwan)

Glutamate, NMDA, Glycine = Glutamate, NMDA, Glycine (Rattus norvegicus, UniProt P35439); assay: off-target screen panel; assay type: binding; conditions: Rat cerebral cortex, [^3H]MDL 105,519
PDE7 [4] = assay: In vitro autoradiography of rat brain sections with [^11C]MTP38; assay type: binding, Sprague-Dawley rats; conditions: [^11C]MTP38 2 nM, unlabeled MTP38 10 μM, MTP-X 4 μM, MT-3014 40 nM
Procedure: In vitro autoradiography was performed using 20-μm-thick fresh-frozen brain sections derived from Sprague-Dawley rats and rhesus monkeys. The sections were preincubated for 10 min in 50 mM Tris-HCl buffer (pH 7.4) at room temperature. These samples were then incubated for 60 min at room temperature in fresh buffer containing [^11C]MTP38 (2 nM) with or without unlabeled MTP38 (10 μM), MTP-X (4 μM), or MT-3014 (40 nM). The concentrations of MTP-X and MT-3014 were more than 400-fold of reported IC50 values of these agents. After the incubation, the brain sections were immersed twice in cold buffer for 3 min, dipped in cold distilled water for 10 s, and dried with warm airflow. Then the sections were contacted with imaging plates (BAS-MS2025, Fujifilm, Tokyo, Japan) for 60 min. The imaging plates were scanned with an imaging plate reader (BAS5000, Fujifilm, Tokyo, Japan), and the images were analyzed with the MultiGuage software (ver. 3.0, Fujifilm, Tokyo, Japan).

Imidazoline I2, Central = assay: off-target screen panel; assay type: binding; conditions: Rat cerebral cortex, [^3H]Idazoxan
[5] = biological target: T11, Serotonin (5-Hydroxytryptamine) 5-HT2B (Homo sapiens, UniProt P41595); assay: off-target screen panel; assay type: binding; conditions: Human recombinant, [^3H]Lysergic acid diethylamide (LSD)
T11 construct: purchased Eurofins Panlabs Discovery Services (Taiwan)

PDE4 = assay: off-target screen panel; assay type: binding; conditions: Rat brain, [^3H]Rolipram
[6] = biological target: T12, Transporter, Serotonin (5-Hydroxytryptamine) (SERT) (Homo sapiens, UniProt P31645); assay: off-target screen panel; assay type: binding; conditions: Human recombinant, [^3H]Paroxetine
T12 construct: purchased Eurofins Panlabs Discovery Services (Taiwan)

[7] = biological target: T13, Epidermal Growth Factor (EGF) (Homo sapiens, UniProt P00533); assay: off-target screen panel; assay type: binding; conditions: Human A431 cells, [^125I]EGF
T13 construct: purchased Eurofins Panlabs Discovery Services (Taiwan)

Nicotinic Acetylcholine = assay: off-target screen panel; assay type: binding; conditions: Human IMR-32 cells, [^125I]Epibatidine
PDE7 [8] = assay: PET imaging in rats with [^11C]MTP38; assay type: in vivo, Wistar rats; conditions: unlabeled MTP38 0.5 mg/kg intravenously 2 min before radioligand
Procedure: Each rat was scanned multiple times with a shortest interval of 1 month. Rats were anesthetized with isoflurane (3% for induction and 2% for maintenance) throughout the experiment. The tail vein was cannulated for radioligand injection. Body temperature was maintained at around 37 °C using a heating pad. The head of the rat was fixed at the center of the field of view of an animal PET scanner (microPET Focus220, Siemens Medical Solutions, Malvern, USA). A 90-min list-mode data acquisition was started simultaneously with intravenous administration of [^11C]MTP38. The list-mode data were sorted into 3D sinograms, which were then Fourier-rebinned into 2D sinograms (frames: 10 s × 6, 30 s × 8, 1 min × 5, 2 min × 10, and 5 min × 12). The sinograms were reconstructed with a filtered back-projection algorithm using a Hanning filter with a cut-off at the Nyquist frequency (0.5 mm^−1).
Along with baseline scans, we conducted blockade PET experiments according to the following pretreatment protocols: (1) unlabeled MTP38 (0.5 mg/kg) was administered intravenously at 2 min before radioligand injection, and (2) MTP-X (100 mg/kg) was administered orally at 1 h before radioligand injection.
PET images were co-registered manually onto the magnetic resonance (MR) template image. Details of co-registration were described elsewhere. Regions of interest (ROIs) were placed on the striatum as a target region and on the cerebellum (gray matter) as a reference region according to the expression of PDE7B mRNA in the rat brain [6], and time-activity curves (TACs) were generated for each ROI. Radioactivity in the brain was normalized with injected radioactivity and body weight, and expressed as standardized uptake value (SUV). Then the SUV ratio between the striatum and cerebellum was obtained to estimate the radioligand binding in the target region in baseline and blockade experiments.

Prostanoid EP4 = biological target: T14, Prostanoid EP4 (Homo sapiens, UniProt P35408); assay: off-target screen panel; assay type: binding; conditions: Human recombinant, [^3H]Prostaglandin E2 (PGE2)
T14 construct: purchased Eurofins Panlabs Discovery Services (Taiwan)
T14 sequence (P35408 whole entry): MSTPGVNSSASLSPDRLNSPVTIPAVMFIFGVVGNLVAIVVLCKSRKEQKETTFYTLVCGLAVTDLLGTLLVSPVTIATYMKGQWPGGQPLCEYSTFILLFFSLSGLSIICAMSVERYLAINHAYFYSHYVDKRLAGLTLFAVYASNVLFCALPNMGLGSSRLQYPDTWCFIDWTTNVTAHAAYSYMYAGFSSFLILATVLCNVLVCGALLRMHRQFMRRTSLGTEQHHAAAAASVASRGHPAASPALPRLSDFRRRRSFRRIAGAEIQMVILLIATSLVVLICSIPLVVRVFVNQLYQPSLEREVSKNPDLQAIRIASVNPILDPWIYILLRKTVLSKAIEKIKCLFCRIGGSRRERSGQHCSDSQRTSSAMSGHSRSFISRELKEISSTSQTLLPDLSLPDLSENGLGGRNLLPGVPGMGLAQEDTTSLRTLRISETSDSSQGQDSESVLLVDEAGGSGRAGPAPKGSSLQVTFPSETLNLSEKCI

T3 sequence (P04150 whole entry): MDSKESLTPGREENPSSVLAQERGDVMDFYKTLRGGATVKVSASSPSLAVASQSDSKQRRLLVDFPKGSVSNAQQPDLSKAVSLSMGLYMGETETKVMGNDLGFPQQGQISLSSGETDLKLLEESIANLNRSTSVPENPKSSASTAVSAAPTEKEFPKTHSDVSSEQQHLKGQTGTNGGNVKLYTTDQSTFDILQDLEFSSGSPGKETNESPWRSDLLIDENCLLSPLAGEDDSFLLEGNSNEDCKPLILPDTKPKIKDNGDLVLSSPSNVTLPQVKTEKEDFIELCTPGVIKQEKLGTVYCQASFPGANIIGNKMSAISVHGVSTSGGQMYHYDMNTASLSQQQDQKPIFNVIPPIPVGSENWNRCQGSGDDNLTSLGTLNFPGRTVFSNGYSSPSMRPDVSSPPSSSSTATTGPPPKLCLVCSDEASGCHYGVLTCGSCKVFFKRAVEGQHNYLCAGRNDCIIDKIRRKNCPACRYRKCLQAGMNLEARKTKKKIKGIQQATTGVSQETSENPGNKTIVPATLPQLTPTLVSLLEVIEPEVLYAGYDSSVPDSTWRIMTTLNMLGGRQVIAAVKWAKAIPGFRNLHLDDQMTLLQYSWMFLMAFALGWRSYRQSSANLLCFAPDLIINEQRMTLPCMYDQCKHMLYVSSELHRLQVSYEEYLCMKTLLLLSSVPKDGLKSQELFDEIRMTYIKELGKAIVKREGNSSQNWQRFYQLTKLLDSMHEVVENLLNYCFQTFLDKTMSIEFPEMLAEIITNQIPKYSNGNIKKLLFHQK
T9 sequence (P14778 18-569): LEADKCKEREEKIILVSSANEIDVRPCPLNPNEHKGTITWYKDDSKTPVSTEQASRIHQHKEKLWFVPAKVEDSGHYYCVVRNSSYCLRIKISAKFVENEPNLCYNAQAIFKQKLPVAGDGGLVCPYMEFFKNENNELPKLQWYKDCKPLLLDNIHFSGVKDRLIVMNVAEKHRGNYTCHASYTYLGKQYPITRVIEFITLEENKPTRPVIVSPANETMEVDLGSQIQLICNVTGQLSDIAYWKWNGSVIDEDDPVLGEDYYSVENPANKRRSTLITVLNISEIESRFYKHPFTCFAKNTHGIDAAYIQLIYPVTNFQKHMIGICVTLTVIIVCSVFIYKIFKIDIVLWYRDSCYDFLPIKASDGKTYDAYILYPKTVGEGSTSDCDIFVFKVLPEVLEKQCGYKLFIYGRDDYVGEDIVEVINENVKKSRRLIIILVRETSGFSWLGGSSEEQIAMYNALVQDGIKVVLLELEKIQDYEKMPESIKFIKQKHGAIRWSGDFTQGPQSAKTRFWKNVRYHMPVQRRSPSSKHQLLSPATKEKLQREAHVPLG
T12 sequence (P31645 whole entry): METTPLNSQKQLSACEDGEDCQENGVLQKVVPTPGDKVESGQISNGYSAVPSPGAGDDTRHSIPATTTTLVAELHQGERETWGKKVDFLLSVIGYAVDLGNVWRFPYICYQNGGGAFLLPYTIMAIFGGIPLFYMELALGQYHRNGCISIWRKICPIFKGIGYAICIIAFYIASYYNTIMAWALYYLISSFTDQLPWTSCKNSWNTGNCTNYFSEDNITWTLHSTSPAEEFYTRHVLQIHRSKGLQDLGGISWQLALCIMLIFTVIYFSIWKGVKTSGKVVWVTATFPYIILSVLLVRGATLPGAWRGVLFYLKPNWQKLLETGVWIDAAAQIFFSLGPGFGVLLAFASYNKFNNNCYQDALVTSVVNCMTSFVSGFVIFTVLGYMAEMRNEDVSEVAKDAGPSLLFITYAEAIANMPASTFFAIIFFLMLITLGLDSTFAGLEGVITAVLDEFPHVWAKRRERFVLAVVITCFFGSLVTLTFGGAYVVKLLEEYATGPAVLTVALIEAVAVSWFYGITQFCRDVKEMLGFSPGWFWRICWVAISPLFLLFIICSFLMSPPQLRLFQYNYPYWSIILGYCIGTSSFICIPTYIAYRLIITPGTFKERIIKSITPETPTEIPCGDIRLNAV
Glutamate, NMDA, Glycine, sequence (P35439 394-800 limits assumed): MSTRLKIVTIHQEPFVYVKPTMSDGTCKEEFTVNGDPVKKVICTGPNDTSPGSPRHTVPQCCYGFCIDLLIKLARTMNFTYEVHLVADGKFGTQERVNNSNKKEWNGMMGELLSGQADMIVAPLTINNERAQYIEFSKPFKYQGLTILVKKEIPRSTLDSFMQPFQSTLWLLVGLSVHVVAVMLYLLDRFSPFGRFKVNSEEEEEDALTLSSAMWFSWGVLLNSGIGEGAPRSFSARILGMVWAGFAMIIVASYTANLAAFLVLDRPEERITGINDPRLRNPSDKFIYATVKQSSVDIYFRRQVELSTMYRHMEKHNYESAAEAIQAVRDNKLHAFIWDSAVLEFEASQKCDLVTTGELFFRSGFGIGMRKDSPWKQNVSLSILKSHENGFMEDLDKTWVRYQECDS
T8 sequence (P25101 21-427): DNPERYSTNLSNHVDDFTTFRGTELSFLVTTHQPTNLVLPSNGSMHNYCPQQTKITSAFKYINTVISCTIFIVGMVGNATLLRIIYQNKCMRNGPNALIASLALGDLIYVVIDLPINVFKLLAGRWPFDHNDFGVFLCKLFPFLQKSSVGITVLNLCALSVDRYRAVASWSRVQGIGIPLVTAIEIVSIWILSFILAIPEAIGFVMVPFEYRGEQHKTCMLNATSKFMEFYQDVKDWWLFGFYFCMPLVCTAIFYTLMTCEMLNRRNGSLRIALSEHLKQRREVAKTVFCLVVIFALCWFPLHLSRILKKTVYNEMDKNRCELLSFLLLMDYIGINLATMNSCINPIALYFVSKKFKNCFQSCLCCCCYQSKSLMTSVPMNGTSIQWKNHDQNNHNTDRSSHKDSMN
T11 sequence (P41595 whole entry): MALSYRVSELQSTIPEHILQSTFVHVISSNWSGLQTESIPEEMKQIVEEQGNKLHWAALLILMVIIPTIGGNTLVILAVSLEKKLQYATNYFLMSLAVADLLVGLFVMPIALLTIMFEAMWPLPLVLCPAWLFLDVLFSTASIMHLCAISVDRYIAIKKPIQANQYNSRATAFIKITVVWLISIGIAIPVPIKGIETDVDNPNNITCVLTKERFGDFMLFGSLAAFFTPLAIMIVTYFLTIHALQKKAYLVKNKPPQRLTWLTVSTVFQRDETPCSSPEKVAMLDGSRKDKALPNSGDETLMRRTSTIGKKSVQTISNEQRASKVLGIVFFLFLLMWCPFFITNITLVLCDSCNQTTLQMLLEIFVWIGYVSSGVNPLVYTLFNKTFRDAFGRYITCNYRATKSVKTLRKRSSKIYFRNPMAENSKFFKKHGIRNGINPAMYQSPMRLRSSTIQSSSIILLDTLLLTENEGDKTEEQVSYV
T4 sequence (P25103 whole entry): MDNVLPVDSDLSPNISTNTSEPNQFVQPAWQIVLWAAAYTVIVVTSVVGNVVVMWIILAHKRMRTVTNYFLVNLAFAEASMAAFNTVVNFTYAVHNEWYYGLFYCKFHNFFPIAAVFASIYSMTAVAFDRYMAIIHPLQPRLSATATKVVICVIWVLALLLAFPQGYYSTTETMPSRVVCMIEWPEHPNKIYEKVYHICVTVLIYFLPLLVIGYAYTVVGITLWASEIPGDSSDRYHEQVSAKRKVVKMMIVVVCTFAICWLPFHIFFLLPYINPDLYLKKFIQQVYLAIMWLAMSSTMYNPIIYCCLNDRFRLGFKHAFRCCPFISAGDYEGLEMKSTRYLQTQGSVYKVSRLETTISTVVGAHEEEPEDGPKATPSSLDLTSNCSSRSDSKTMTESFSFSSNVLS
T5 sequence (P30542 whole entry): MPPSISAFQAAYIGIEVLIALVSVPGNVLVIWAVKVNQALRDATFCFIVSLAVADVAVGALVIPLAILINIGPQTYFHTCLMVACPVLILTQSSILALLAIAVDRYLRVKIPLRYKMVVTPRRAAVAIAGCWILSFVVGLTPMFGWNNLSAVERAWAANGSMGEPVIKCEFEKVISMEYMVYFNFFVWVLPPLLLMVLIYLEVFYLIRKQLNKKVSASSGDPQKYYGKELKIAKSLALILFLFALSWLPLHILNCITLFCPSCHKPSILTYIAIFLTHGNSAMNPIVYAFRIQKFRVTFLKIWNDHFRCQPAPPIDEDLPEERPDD
T7 sequence (P25929 whole entry): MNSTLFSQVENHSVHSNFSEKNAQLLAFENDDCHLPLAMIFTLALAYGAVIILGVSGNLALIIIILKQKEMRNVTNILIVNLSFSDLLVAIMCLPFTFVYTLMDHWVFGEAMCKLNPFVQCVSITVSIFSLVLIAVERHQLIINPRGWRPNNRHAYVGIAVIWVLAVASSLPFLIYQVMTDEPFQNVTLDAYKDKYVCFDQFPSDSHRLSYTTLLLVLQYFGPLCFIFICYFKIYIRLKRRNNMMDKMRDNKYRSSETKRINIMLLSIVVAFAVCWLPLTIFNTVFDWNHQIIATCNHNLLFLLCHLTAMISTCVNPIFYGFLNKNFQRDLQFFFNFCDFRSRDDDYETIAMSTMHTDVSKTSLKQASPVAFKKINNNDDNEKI

SMILES: C[C@@H]1CC[C@H](C)N(c2nnc3c(N)ncc(C#N)n23)C1 (relative stereo) [MTP38, 8-amino-3-(2S*,5R*-dimethyl-1-piperidyl)-[1,2,4]triazolo[4,3-a]pyrazine-5-carbonitrile]
- inhibition at 1 µM (GABAB1A): -10%
- inhibition at 1 µM (Dopamine D1): -14%
- inhibition at 1 µM (Glucocorticoid): 0%
- inhibition at 1 µM (Tachykinin NK1): 9%
- Inhibition (%) at 1 μM (Transporter, GABA): -2%
- inhibition at 1 µM (Adenosine A1): -12%
- inhibition at 1 µM [1]: 15%
- Inhibition (%) at 1 μM [2]: -2%
- inhibition at 1 µM (Neuropeptide Y Y1): -13%
- Inhibition (%) at 1 μM [3]: 16%
- inhibition at 1 µM (Endothelin ETA): -10%
- inhibition at 1 µM (Interleukin IL-1 R1): -5%
- inhibition at 1 µM (Muscarinic M1): -20%
- inhibition at 1 µM (Glutamate, NMDA, Glycine): -15%
- effect of blocker on striatal radioactivity of [^11C]MTP38 (PDE7 [4]): reduced the striatal radioactivity
- Inhibition (%) at 1 μM (Imidazoline I2, Central): -8%
- inhibition at 1 µM [5]: -1%
- Inhibition (%) at 1 μM (PDE4): 74%
- inhibition at 1 µM [6]: -14%
- inhibition at 1 µM [7]: 1%
- Inhibition (%) at 1 μM (Nicotinic Acetylcholine): -8%
- striatum-to-cerebellum ratio of SUV of [^11C]MTP38 after pretreatment (PDE7 [8]): around 1.1
- inhibition at 1 µM (Prostanoid EP4): 8%
